Measured values taken from patent US9006208B2, “Agent for treatment of dry eye characterized by combining P2Y2 receptor agonist and hyaluronic acid or salt thereof, method for treating dry eye, and use of the P2Y2 receptor agonist and hyaluronic acid or salt thereof” (Santen Pharmaceutical Co., Ltd., priority 2010, dated 2015).

How the values were obtained:
[1] = clinical tests; Cornea 23(8), 784-792 (2004); cited from earlier work
[2] = system: normal male white rabbits; experiment: Pharmacological Test 3: change in tear meniscus area (3% diquafosol sodium, 0.002% sodium hyaluronate); assay type: in vivo, rabbit; conditions: 35 minutes after administration, 50 μL, combination: hyaluronate 5 min after diquafosol
Description: For the purpose of examining as to whether or not an increase in tear meniscus area values is observed when a P2Y2 receptor agonist at a therapeutically effective concentration is combined with hyaluronic acid or a salt thereof at a concentration which is employed as an additive, the time course of a change in the tear meniscus area value after the sequential ocular instillation of the 3% diquafosol sodium and the 0.002% sodium hyaluronate was evaluated in the same manner as in Pharmacological test 1.
A 3% diquafosol sodium ophthalmic solution was prepared in the same manner as in the above-mentioned Pharmacological test 1. A 0.002% sodium hyaluronate ophthalmic solution was prepared by diluting “Hyalein® ophthalmic solution 0.3%” manufactured and sold by Santen Pharmaceutical Co., Ltd. with physiological saline.
With respect to normal male white rabbits (24 eyes of 12 rabbits in total), a photograph of a tear meniscus before the administration of a drug was taken in the same manner as in pharmacological test 1. […]
(§1) The change in the tear meniscus area before and after the administration of each of the drugs was calculated as a “Δ tear meniscus area value”.

[3] = system: normal male white rabbits; experiment: Pharmacological Test 4: change in tear meniscus area (3% diquafosol sodium, 0.3% sodium hyaluronate); assay type: in vivo, rabbit; conditions: after 35 minutes, 50 μL, combination: hyaluronate 5 min after diquafosol
Description: The time course of a change in tear meniscus area values after the sequential instillation of 3% diquafosol sodium and 0.3% sodium hyaluronate into eyes was evaluated in the same manner as in Pharmacological test 1.
A 3% diquafosol sodium ophthalmic solution was prepared in the same manner as in the above-mentioned Pharmacological test 1. “Hyalein® ophthalmic solution 0.3%” manufactured and sold by Santen Pharmaceutical Co., Ltd. was used as a 0.3% sodium hyaluronate ophthalmic solution.
With respect to each of normal male white rabbits (18 eyes of 9 rabbits in total), a photograph of a tear meniscus was taken before the administration of each of the drug in the same manner as in Pharmacological test 1. […]
as §1

[4] = system: normal male white rabbits; experiment: Pharmacological Test 1: change in tear meniscus area after ocular instillation (3% diquafosol sodium, 0.1% sodium hyaluronate); assay type: in vivo, rabbit; conditions: 50 μL instilled once, FIG. 1
Description: The change in the tear fluid volume can be evaluated by measuring the value of a tear meniscus area stained with a fluorescein solution (Exp. Eye. Res., 78(3), 399-407 (2004)). Then, the time course of a change in the tear meniscus area value after the sequential administration of diquafosol sodium, which is a P2Y2 receptor agonist, and sodium hyaluronate to eyes was evaluated in accordance with the method of Murakami et al. (Ophthalmic Res., 34, 371-374 (2002)), using normal male white rabbits. […]
A 0.1% fluorescein solution (3 μL) was administered onto a tear meniscus of the lower eyelid of each of normal male white rabbits (40 eyes of 20 rabbits in total), and a photograph of the tear meniscus that was stained with fluorescein accumulated in the eyelid was taken. The area of the stained tear meniscus part in the photograph was calculated using image analysis software, and the resultant value was employed as a baseline. […]
The change in the tear meniscus area before and after the administration of each of the drugs was calculated as “Δ tear meniscus area value”. […]

[5] = system: rat model from which an exorbital lacrimal gland is excised, additionally applied airflow (corneal epithelial disorder); experiment: Pharmacological Test 2: corneal fluorescein staining score in rat dry eye model (exorbital lacrimal gland excised plus airflow); assay type: in vivo; conditions: 5 μL into both eyes 6 times per day for 6 weeks; 3% diquafosol sodium, 0.1% sodium hyaluronate; compared with non-administered group; FIG. 2
Source text: A rat model from which an exorbital lacrimal gland is excised therefrom has been generally used as a model for evaluating therapeutic effects on corneal epithelial disorders induced by dry eye, and has also been used as a model for evaluating therapeutic effects of P2Y2 receptor agonists (Invest. Ophthalmol. Vis. Sci., 42(1), 96-100 (2001)). Using a dry eye model which is additionally applied airflow to the rat model, it was examined whether or not an improvement effect on corneal epithelial disorders could be achieved by the administration of a P2Y2 receptor agonist at a therapeutically effective concentration and hyaluronic acid or a salt thereof at a therapeutically effective concentration in combination. […]
Six weeks after the initiation of the instillation into eyes, an affected part of the cornea was stained with fluorescein, and the occurrence of the corneal epithelial disorder was determined in accordance with the method by Murakami et al. (Journal of the Eye (Atarashii Ganka), 21(1), 87-90 (2004)). That is, with respect to each of an upper part, an intermediate part and a lower part of the cornea, scores of the degree of staining with fluorescein were determined in accordance with the criteria mentioned below, and the average value of the sum total of the scores was calculated. […]

rabbits = conditions: Current Eye Research 21(4), 782-787 (2000); cited from earlier work

Row | SMILES | keratoconjunctival epithelial disorders [1] | secretion of tear [1] | Δ tear meniscus area value [2] | Δ tear meniscus area value [3] | Δ tear meniscus area value ([4]; 10 minutes after administration (of the first agent)) | Δ tear meniscus area value ([4]; 35 minutes after administration (of the first agent)) | fluorescein staining scores of the cornea [5] | secretion of tear (rabbits)
1 | O=c1ccn([C@@H]2O[C@H](COP(=O)(O)OP(=O)(O)OP(=O)(O)OP(=O)(O)OC[C@H]3O[C@@H](n4ccc(=O)[nH]c4=O)C(O)[C@H]3O)[C@H](O)C2O)c(=O)[nH]1 (stereo partly drawn) [Diquafosol, P^1,P^4-bis(5′-uridyl)tetraphosphate] | ameliorated keratoconjunctival epithelial disorders | promoted the secretion of tear | 1 .127 mm^2 | 1.434 mm^2 | increase in the tear meniscus area value was observed | increase in the tear meniscus area value was observed | the tendency of improvement in fluorescein staining scores was observed, the improvement that can be considered as being statistically significant was not observed | 
2 | Nc1ncnc2c1ncn2[C@@H]1O[C@H](COP(=O)(O)OP(=O)(O)OP(=O)(O)O)[C@@H](O)[C@H]1O [ATP, Adenosine 5′-triphosphate] |  |  |  |  |  |  |  | can promote the secretion of tear in rabbits
3 | O=c1ccn([C@@H]2O[C@H](COP(=O)(O)OP(=O)(O)OP(=O)(O)O)[C@@H](O)[C@H]2O)c(=O)[nH]1 [UTP, Uridine 5′-triphosphate] |  |  |  |  |  |  |  | can promote the secretion of tear in rabbits
